Results reported in patent US8779142B2, “Azabicyclo compound and salt thereof” (Taiho Pharmaceutical Co., Ltd., priority 2009, dated 2014).
Where two headings read alike, the source gives them in different places.

Key:
SK-BR-3 cells = test: Measurement of cell growth inhibition (crystal violet staining method); assay type: cell-based; conditions: Homo sapiens
[1] = target: human HSP90 alpha protein (HSP90 N-terminal protein, amino acids 2-236) (Homo sapiens (Human), UniProt P07900); test: Measurement of HSP90-binding activity (AlphaScreen competitive assay, biotin-labeled geldanamycin); conditions: read-out: HSP-binding activity IC50
[2] = breast cancer SK-BR-3 cells, 72 hr culture with test substance
[3] = concentration inhibiting binding of biotin-labeled geldanamycin (40 nM) to purified HSP90 to 50% of control

| SMILES | IC50 (SK-BR-3 cells; [2]) [nM] | IC50 [1, 3] [nM] | IC50 (SK-BR-3 cells; SK-BR-3, 72 h) [nM] | IC50 [1] [nM] |
| --- | --- | --- | --- | --- |
| CC(C)c1nn(-c2ccc(C(N)=O)c(N[C@H]3CC[C@H](O)CC3)c2)c2cncc(-c3cnc4ccccc4c3)c12 [Example 5, 2-(Trans-4-hydroxycyclohexylamino)-4-{3-isopropyl-4-(quinolin-3-yl)-1H-pyrazolo[3,4-c]pyridin-1-yl}benzamide] | – | – | 110 | 160 |
| CC(C)c1nn(-c2ccc(C(N)=O)c(NCC(C)(C)C)c2)c2nccc(-c3cnc4ccccc4c3)c12 [Example 25, 4-{3-Isopropyl-4-(quinolin-3-yl)-1H-pyrazolo[3,4-b]pyridin-1-yl}-2-(neopentylamino)benzamide] | 70 | 1270 | – | – |
| CC(C)c1nn(-c2ccc(C(N)=O)c(N[C@H]3CC[C@H](O)CC3)c2)c2nccc(-c3cnc4c(c3)CCCC4)c12 [Example 19, 2-(Trans-4-hydroxycyclohexylamino)-4-{3-isopropyl-4-(5,6,7,8-tetrahydroquinolin-3-yl)-1H-pyrazolo[3,4-b]pyridin-1-yl}benzamide] | 470 | 1190 | – | – |
| CC(C)c1nn(-c2ccc(C(N)=O)c(NC3CCN(C)CC3)c2)c2nccc(-c3cnc4ccccc4c3)c12 [Example 24, 4-{3-Isopropyl-4-(quinolin-3-yl)-1H-pyrazolo[3,4-b]pyridin-1-yl}-2-(1-methylpiperidin-4-ylamino)benzamide] | 30 | 230 | – | – |
| Cc1cn(-c2ccc(C(N)=O)c(N[C@H]3CC[C@H](O)CC3)c2)c2nccc(-c3cnc4ccccc4c3)c12 [Example 40, 2-(Trans-4-hydroxycyclohexylamino)-4-{3-methyl-4-(quinolin-3-yl)-1H-pyrrolo[2,3-b]pyridin-1-yl}benzamide] | 90 | 270 | – | – |
| CC(=O)N[C@H]1CC[C@H](Nc2cc(-n3cc(C)c4c(-c5cnc6ccccc6c5)ccnc43)ccc2C(N)=O)CC1 [Example 62, 2-(Trans-4-acetamidocyclohexylamino)-4-{3-methyl-4-(quinolin-3-yl)-1H-pyrrolo[2,3-b]pyridin-1-yl}benzamide] | 210 | 610 | – | – |
| Cc1cn(-c2ccc(C(N)=O)c(NCC(C)(C)O)c2)c2nccc(-c3cnc4ccccc4c3)c12 [Example 58, 2-(2-Hydroxy-2-methylpropylamino)-4-{3-methyl-4-(quinolin-3-yl)-1H-pyrrolo[2,3-b]pyridin-1-yl}benzamide] | 210 | 460 | – | – |
| CCCc1cn(-c2ccc(C(N)=O)c(N[C@H]3CC[C@H](O)CC3)c2)c2nccc(-c3cnc4ccccc4c3)c12 [Example 45, 2-(Trans-4-hydroxycyclohexylamino)-4-{3-propyl-4-(quinolin-3-yl)-1H-pyrrolo[2,3-b]pyridin-1-yl}benzamide] | 10 | 90 | – | – |
| COc1ccc2ccn(-c3ccc(C(N)=O)c(NC4CCC(O)CC4)c3)c2c1 (stereo not shown) [Comparative Example 1, reference compound] | > 10000 | > 100000 | – | – |
| CC(C)c1nn(-c2ccc(C(N)=O)cc2Cl)c2nccc(-c3cnc4ccccc4c3)c12 [Example 38, 3-Chloro-4-{3-isopropyl-4-(quinolin-3-yl)-1H-pyrazolo[3,4-b]pyridin-1-yl}benzamide] | 670 | 510 | – | – |
| Cc1cn(-c2ccc(C(N)=O)c(NC3CCOCC3)c2)c2nccc(-c3cnc4ccccc4c3)c12 [Example 53, 2-(Tetrahydro-2H-pyran-4-ylamino)-4-{3-methyl-4-(quinolin-3-yl)-1H-pyrrolo[2,3-b]pyridin-1-yl}benzamide] | 200 | 350 | – | – |
| CC(C)c1nn(-c2ccc(C(N)=O)c(N[C@H]3CC[C@H](O)CC3)c2)c2ccnc(-c3cnc4ccccc4c3)c12 [Example 4, 2-(Trans-4-hydroxycyclohexylamino)-4-{3-isopropyl-4-(quinolin-3-yl)-1H-pyrazolo[4,3-c]pyridin-1-yl}benzamide] | – | – | 820 | 1600 |

More lines, main results first:

| IC50 (SK-BR-3 cells; [2]) [nM] | IC50 [1, 3] [nM] | SMILES | IC50 (SK-BR-3 cells; SK-BR-3, 72 h) [nM] | IC50 [1] [nM] |
| --- | --- | --- | --- | --- |
| 710 | 620 | CCNc1cc(C(N)=O)ccc1-n1nc(C(F)(F)F)c2c(-n3cnc(-c4cnn(C(C)C)c4)c3)ccnc21 [Example 187, 3-(Ethylamino)-4-{4-(4-(1-isopropyl-1H-pyrazol-4-yl)-1H-imidazol-1-yl)-3-(trifluoromethyl)-1H-pyrazolo[3,4-b]pyridin-1-yl}benzamide] | – | – |
| 80 | 120 | Cn1cc(-c2cn(-c3ccnc4c3c(C(F)(F)F)nn4-c3ccc(C(N)=O)cc3C3CC3)cn2)cn1 [Example 173, 3-(Cyclopropyl)-4-{4-(4-(1-methyl-1H-pyrazol-4-yl)-1H-imidazol-1-yl)-3-(trifluoromethyl)-1H-pyrazolo[3,4-b]pyridin-1-yl}benzamide] | – | – |
| 40 | 250 | CC(C)c1nn(-c2ccc(C(N)=O)c(NC(C)(C)C)c2)c2nccc(-n3cnc(-c4cnn(C)c4)c3)c12 [Example 112, 2-(Tert-butylamino)-4-{3-isopropyl-4-(4-(1-methyl-1H-pyrazol-4-yl)-1H-imidazol-1-yl)-1H-pyrazolo[3,4-b]pyridin-1-yl}benzamide] | – | – |
| 290 | 210 | CN(C)c1cc(C(N)=O)ccc1-n1nc(C(F)(F)F)c2c(-n3cnc(-c4cnn(C)c4)c3)ccnc21 [Example 159, 3-(Dimethylamino)-4-{4-(4-(1-methyl-1H-pyrazol-4-yl)-1H-imidazol-1-yl)-3-(trifluoromethyl)-1H-pyrazolo[3,4-b]pyridin-1-yl}benzamide] | – | – |
| 280 | 570 | CCNc1cc(-n2nc(C(C)C)c3c(-n4cnc(-c5cccnc5)c4)ccnc32)ccc1C(N)=O [Example 139, 2-(Ethylamino)-4-{3-isopropyl-4-(4-(pyridin-3-yl)-1H-imidazol-1-yl)-1H-pyrazolo[3,4-b]pyridin-1-yl}benzamide] | – | – |
| 40 | 70 | CCCc1cc(C(N)=O)ccc1-n1nc(C(F)(F)F)c2c(-n3cnc(-c4cnn(C)c4)c3)ccnc21 [Example 156, 4-{4-(4-(1-Methyl-1H-pyrazol-4-yl)-1H-imidazol-1-yl)-3-(trifluoromethyl)-1H-pyrazolo[3,4-b]pyridin-1-yl}-3-propylbenzamide] | – | – |
| 1500 | 630 | CCn1cc(-c2cn(-c3ccnc4c3c(C(C)C)nn4-c3ccc(C(N)=O)cc3Cl)cn2)cn1 [Example 145, 3-Chloro-4-{4-(4-(1-ethyl-1H-pyrazol-4-yl)-1H-imidazol-1-yl)-3-isopropyl-1H-pyrazolo[3,4-b]pyridin-1-yl}benzamide] | – | – |
| 210 | 770 | CCNc1cc(-n2nc(C(C)C)c3c(-n4cnc(-c5cnn(CC)c5)c4)ccnc32)ccc1C(N)=O [Example 146, 4-{4-(4-(1-Ethyl-1H-pyrazol-4-yl)-1H-imidazol-1-yl)-3-isopropyl-1H-pyrazolo[3,4-b]pyridin-1-yl}-2-(ethylamino)benzamide] | – | – |
| 20 | 60 | CC(C)c1nn(-c2ccc(C(N)=O)c(NC3CCC(O)CC3)c2)c2nccc(-n3cnc(-c4cn[nH]c4)c3)c12 (stereo not shown) [Example 95, 4-{4-(4-(1H-Pyrazol-4-yl)-1H-imidazol-1-yl)-3-isopropyl-1H-pyrazolo[3,4-b]pyridin-1-yl}-2-(4-hydroxycyclohexylamino)benzamide] | – | – |
| 270 | 230 | Cn1cc(-c2cn(-c3ccnc4c3c(C(F)(F)F)nn4-c3ccc(C(N)=O)cc3C#N)cn2)cn1 [Example 169, 3-Cyano-4-{4-(4-(1-methyl-1H-pyrazol-4-yl)-1H-imidazol-1-yl)-3-(trifluoromethyl)-1H-pyrazolo[3,4-b]pyridin-1-yl}benzamide] | – | – |
| 290 | 220 | C=Cc1cc(C(N)=O)ccc1-n1nc(C(C)C)c2c(-n3cnc(-c4cnn(C)c4)c3)ccnc21 [Example 101, 4-{3-Isopropyl-4-(4-(1-methyl-1H-pyrazol-4-yl)-1H-imidazol-1-yl)-1H-pyrazolo[3,4-b]pyridin-1-yl}-3-vinylbenzamide] | – | – |
| 410 | 230 | CCn1cc(-c2cn(-c3ccnc4c3c(C(F)(F)F)nn4-c3ccc(C(N)=O)cc3N)cn2)cn1 [Example 184, 3-Amino-4-{4-(4-(1-ethyl-1H-pyrazol-4-yl)-1H-imidazol-1-yl)-3-(trifluoromethyl)-1H-pyrazolo[3,4-b]pyridin-1-yl}benzamide] | – | – |
| 110 | 400 | COc1ccc(-c2cn(-c3ccnc4c3c(C(C)C)nn4-c3ccc(C(N)=O)c(N(O)C4CCCCC4)c3)cn2)cc1 [Example 83, 2-(Hydroxycyclohexylamino)-4-{3-isopropyl-4-(4-(4-methoxyphenyl)-1H-imidazol-1-yl)-1H-pyrazolo[3,4-b]pyridin-1-yl}benzamide] | – | – |
| 150 | 160 | CCNc1c(C(N)=O)ccc(-n2nc(C(C)C)c3c(-n4cnc(-c5cnn(C)c5)c4)ccnc32)c1CC [Example 133, 3-Ethyl-2-(ethylamino)-4-{3-isopropyl-4-(4-(1-methyl-1H-pyrazol-4-yl)-1H-imidazol-1-yl)-1H-pyrazolo[3,4-b]pyridin-1-yl}benzamide] | – | – |
| 70 | 260 | CC(C)c1nn(-c2ccc(C(N)=O)c(NCC(F)F)c2)c2nccc(-n3cnc(-c4cnn(C)c4)c3)c12 [Example 113, 2-(2,2-Difluoroethylamino)-4-{3-isopropyl-4-(4-(1-methyl-1H-pyrazol-4-yl)-1H-imidazol-1-yl)-1H-pyrazolo[3,4-b]pyridin-1-yl}benzamide] | – | – |
| 70 | 120 | Cn1cc(-c2cn(-c3ccnc4c3c(C(F)(F)F)nn4-c3ccc(C(N)=O)cc3NC3CCC3)cn2)cn1 [Example 165, 3-(Cyclobutylamino)-4-{4-(4-(1-methyl-1H-pyrazol-4-yl)-1H-imidazol-1-yl)-3-(trifluoromethyl)-1H-pyrazolo[3,4-b]pyridin-1-yl}benzamide] | – | – |
| 590 | 350 | CC(C)c1nn(-c2ccc(C(N)=O)cc2C#N)c2nccc(-n3cnc(-c4cnn(C)c4)c3)c12 [Example 124, 3-Cyano-4-{3-isopropyl-4-(4-(1-methyl-1H-pyrazol-4-yl)-1H-imidazol-1-yl)-1H-pyrazolo[3,4-b]pyridin-1-yl}benzamide] | – | – |
